The results in this text go back to patent US9399646B2 (Genentech, Inc., priority 2010, dated 2016).

One experiment relates to MCF-7 cells. Nature of the experiment: Breast cancer cell viability assay (CellTiter-Glo, 5 days). Particulars: 5 days' compound exposure; for IC50: Homo sapiens, MCF7, 120 h. The format is cell-based. The gist of the method: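 Eleven-point semilog compound series, final 0.3-0.000003 μM, added to overnight-adhered MCF-7 cells (320/well; RPMI, 10% FBS, 20 mM HEPES) for 5 days. Viability read by CellTiter-Glo luminescence, background from medium without cells subtracted, expressed relative to untreated cells.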
On the technique in general: ATP-based viability assays read luminescence as a measure of living cells.

In a further experiment the target is T1, ER-α in MCF-7 cells (Homo sapiens, UniProt P03372).
T1 sequence (P03372 1-595): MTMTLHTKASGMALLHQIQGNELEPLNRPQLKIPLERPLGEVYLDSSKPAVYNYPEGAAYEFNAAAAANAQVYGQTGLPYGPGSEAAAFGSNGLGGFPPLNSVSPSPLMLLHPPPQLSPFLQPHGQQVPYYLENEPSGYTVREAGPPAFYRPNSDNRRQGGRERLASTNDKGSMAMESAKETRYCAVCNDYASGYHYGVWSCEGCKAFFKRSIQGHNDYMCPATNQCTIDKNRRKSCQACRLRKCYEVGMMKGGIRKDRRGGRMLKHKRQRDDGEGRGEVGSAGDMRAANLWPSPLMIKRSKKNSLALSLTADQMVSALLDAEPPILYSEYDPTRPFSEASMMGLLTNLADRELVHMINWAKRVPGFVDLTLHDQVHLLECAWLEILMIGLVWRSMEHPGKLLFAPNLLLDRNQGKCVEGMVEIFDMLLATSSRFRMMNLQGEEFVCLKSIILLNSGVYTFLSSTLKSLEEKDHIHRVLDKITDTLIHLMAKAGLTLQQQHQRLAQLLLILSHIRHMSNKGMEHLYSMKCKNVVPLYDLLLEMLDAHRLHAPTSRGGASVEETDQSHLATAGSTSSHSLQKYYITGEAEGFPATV
The experiment is described as follows: Breast cancer cell ER-α in cell western assay (SP1). The format is cell-based. Set-up: endogenous in cells; host or cells: MCF-7. Particulars: 4 or 24 hr post compound addition; for Emax: MCF7, SP1 antibody, read-out: ER-α In Cell Western Assay (SP1) Max Response; for DC50: SP1 antibody, read-out: ER-α In Cell Western Assay (SP1) IC50. In outline: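 Percent remaining ER: SP1 immunofluorescence normalized to DRAQ5 nuclear stain, compared with untreated controls. Treatment lasted 4 or 24 hr across 0.3–0.000003 μM final in MCF-7.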

`CC/C(=C(/c1ccc(/C=C/C(=O)O)cc1)c1ccc2[nH]ncc2c1)c1ccc(Oc2ccccc2)cc1C` [Compound 319, (E)-3-(4-((E)-1-(1H-Indazol-5-yl)-2-(2-methyl-4-phenoxyphenyl)but-1-en-1-yl)phenyl)acrylic acid]: in the experiment on MCF-7 cells, the “MCF7 Viability Assay Max Response” value was “++ (++ = a single % value ≧ 40%)” and the 50% inhibitory concentration (IC50) is ≤ 100 nM. Also, at ER-α in MCF-7 cells, the Emax was ≥ 40% and the DC50 is ≤ 100 nM.
In the case of `CC/C(=C(/c1ccc(/C=C/C(=O)O)cc1)c1ccc2[nH]ncc2c1)c1ccc(Oc2ccccc2)c(C)c1` [Compound 320, (E)-3-(4-((E)-1-(1H-Indazol-5-yl)-2-(3-methyl-4-phenoxyphenyl)but-1-en-1-yl)phenyl)acrylic acid], in the experiment on MCF-7 cells, the “MCF7 Viability Assay Max Response” value is “++ (++ = a single % value ≧ 40%)” and the 50% inhibitory concentration (IC50) is ≤ 100 nM. On ER-α in MCF-7 cells, the Emax is ≥ 40% and the DC50 was ≤ 100 nM.
In the case of `CC/C(=C(/c1ccc(/C=C/C(=O)O)cc1)c1ccc2[nH]ncc2c1)c1cccc(Oc2cccc(S(C)(=O)=O)c2)c1` [Compound 321, (E)-3-(4-((E)-1-(1H-Indazol-5-yl)-2-(3-(3-(methylsulfonyl)phenoxy)phenyl)but-1-en-1-yl)phenyl)acrylic acid], in the experiment with MCF-7 cells, the “MCF7 Viability Assay Max Response” value is “++ (++ = a single % value ≧ 40%)” and the half-maximal inhibitory concentration (IC50) was ≤ 100 nM. In addition, at ER-α in MCF-7 cells, the Emax was ≥ 40% and the DC50 was ≤ 100 nM.
As for `CC/C(=C(/c1ccc(/C=C/C(=O)O)cc1)c1ccc2[nH]ncc2c1)c1cccc(CC(=O)O)c1` [Compound 327, (E)-3-(4-((E)-2-(3-(Carboxymethyl)phenyl)-1-(1H-indazol-5-yl)but-1-en-1-yl)phenyl)acrylic acid], in the experiment with MCF-7 cells, the “MCF7 Viability Assay Max Response” value was “+ (+ = a single % value < 40%)” and the half-inhibitory concentration (IC50) was > 100 nM. In addition, on ER-α in MCF-7 cells, the Emax was < 40% and the DC50 is > 100 nM.
As for `CC/C(=C(/c1ccc(/C=C/C(=O)O)cc1)c1ccc2[nH]ncc2c1)c1ccc(CC(=O)O)cc1` [Compound 328, (E)-3-(4-((E)-2-(4-(Carboxymethyl)phenyl)-1-(1H-indazol-5-yl)but-1-en-1-yl)phenyl)acrylic acid], in the experiment on MCF-7 cells, the “MCF7 Viability Assay Max Response” value was “+ (+ = a single % value < 40%)” and the half-inhibitory concentration (IC50) was > 100 nM. Also, at ER-α in MCF-7 cells, the Emax is < 40% and the DC50 was > 100 nM.
`CC/C(=C(/c1ccc(OC[C@H](C)N2CC[C@@H](C)C2)cc1)c1ccc2[nH]ncc2c1)c1ccccc1` [Compound 329, 5-((E)-1-(4-((S)-2-((R)-3-Methylpyrrolidin-1-yl)propoxy)phenyl)-2-phenylbut-1-en-1-yl)-1H-indazole]: in the experiment on MCF-7 cells, the “MCF7 Viability Assay Max Response” value is on record as “++ (++ = a single % value ≧ 40%)” and the half-maximal inhibitory concentration (IC50) was ≤ 100 nM. In addition, on ER-α in MCF-7 cells, the Emax was ≥ 40% and the DC50 is ≤ 100 nM.
For `CC/C(=C(/c1ccc(OC[C@H](C)N2CC[C@@H](C)C2)cc1)c1ccc2[nH]ncc2c1)c1ccccc1Cl` [Compound 330, 5-((E)-2-(2-Chlorophenyl)-1-(4-((S)-2-((R)-3-methylpyrrolidin-1-yl)propoxy)phenyl)but-1-en-1-yl)-1H-indazole], in the experiment on MCF-7 cells, the “MCF7 Viability Assay Max Response” value was “++ (++ = a single % value ≧ 40%)” and the IC50 is ≤ 100 nM. On ER-α in MCF-7 cells, the Emax was ≥ 40% and the DC50 is ≤ 100 nM.
Turning to `CC/C(=C(/c1ccc(OC[C@H](C)N2CC[C@@H](C)C2)cc1)c1ccc2[nH]ncc2c1)c1ccncc1Cl` [Compound 331, 5-((E)-2-(3-Chloropyridin-4-yl)-1-(4-((S)-2-((R)-3-methylpyrrolidin-1-yl)propoxy)phenyl)but-1-en-1-yl)-1H-indazole], in the experiment on MCF-7 cells, the “MCF7 Viability Assay Max Response” value is “++ (++ = a single % value ≧ 40%)” and the 50% inhibitory concentration (IC50) is ≤ 100 nM. In addition, at ER-α in MCF-7 cells, the Emax was ≥ 40% and the DC50 was ≤ 100 nM.
Consider `CC/C(=C(/c1ccc(OC2(C(=O)O)CC2)cc1)c1ccc2[nH]ncc2c1)c1ccc(F)cc1Cl` [Compound 332, (E)-1-(4-(2-(2-Chloro-4-fluorophenyl)-1-(1H-indazol-5-yl)but-1-en-1-yl)phenoxy)cyclopropanecarboxylic acid], for which, in the experiment with MCF-7 cells, the “MCF7 Viability Assay Max Response” value was “++ (++ = a single % value ≧ 40%)” and the IC50 was > 100 nM. Further, on ER-α in MCF-7 cells, the Emax is ≥ 40% and the DC50 is > 100 nM.
For the compound `CC/C(=C(/c1ccc(-c2cc(O)no2)cc1)c1ccc2[nH]ncc2c1)c1ccc(F)cc1Cl` [Compound 333, (E)-5-(4-(2-(2-Chloro-4-fluorophenyl)-1-(1H-indazol-5-yl)but-1-en-1-yl)phenyl)isoxazol-3-ol], in the experiment on MCF-7 cells, the “MCF7 Viability Assay Max Response” value is listed as “++ (++ = a single % value ≧ 40%)” and the IC50 is ≤ 100 nM. Besides, on ER-α in MCF-7 cells, the Emax is ≥ 40% and the DC50 is ≤ 100 nM.
Regarding `CC/C(=C(/c1ccc(-c2cc(O)on2)cc1)c1ccc2[nH]ncc2c1)c1ccc(F)cc1Cl` [Compound 334, (E)-3-(4-(2-(2-Chloro-4-fluorophenyl)-1-(1H-indazol-5-yl)but-1-en-1-yl)phenyl)isoxazol-5-ol], in the experiment with MCF-7 cells, the “MCF7 Viability Assay Max Response” value is on record as “+ (+ = a single % value < 40%)” and the IC50 was > 100 nM. In addition, at ER-α in MCF-7 cells, the Emax is ≥ 40% and the DC50 is ≤ 100 nM.
Taken in the same sequence, the figures for `CC/C(=C(/c1ccc(CCC(=O)O)cc1)c1ccc2[nH]ncc2c1)c1ccccc1` [Compound 338, (E)-3-(4-(1-(1H-Indazol-5-yl)-2-phenylbut-1-en-1-yl)phenyl)propanoic acid] were “++ (++ = a single % value ≧ 40%)”, > 100 nM, ≥ 40% and ≤ 100 nM.
The matching figures for `CC/C(=C(/c1ccc(/C=C/C(=O)O)cc1)c1ccc2[nH]ncc2c1)c1ccc(OCCOC)cc1` [Compound 339, (E)-3-(4-((E)-1-(1H-Indazol-5-yl)-2-(4-(2-methoxyethoxy)phenyl)but-1-en-1-yl)phenyl)acrylic acid]: “++ (++ = a single % value ≧ 40%)”, ≤ 100 nM, ≥ 40% and ≤ 100 nM.
As to `CC/C(=C(/c1ccc(/C=C/C(=O)O)cc1)c1ccc2[nH]ncc2c1)c1ccc(OCCCOC)cc1` [Compound 340, (E)-3-(4-((E)-1-(1H-Indazol-5-yl)-2-(4-(3-methoxypropoxy)phenyl)but-1-en-1-yl)phenyl)acrylic acid], in the experiment on MCF-7 cells, the “MCF7 Viability Assay Max Response” value was “++ (++ = a single % value ≧ 40%)” and the IC50 is ≤ 100 nM. Besides, on ER-α in MCF-7 cells, the Emax is ≥ 40% and the DC50 was ≤ 100 nM.
As for `CC/C(=C(/c1ccc(/C=C/C(=O)O)cc1)c1ccc2[nH]ncc2c1)c1cccc(OCCOC)c1` [Compound 341, (E)-3-(4-((E)-1-(1H-Indazol-5-yl)-2-(3-(2-methoxyethoxy)phenyl)but-1-en-1-yl)phenyl)acrylic acid], in the experiment with MCF-7 cells, the “MCF7 Viability Assay Max Response” value is “++ (++ = a single % value ≧ 40%)” and the half-inhibitory concentration (IC50) is ≤ 100 nM. Also, on ER-α in MCF-7 cells, the Emax is ≥ 40% and the DC50 was ≤ 100 nM.
In the case of `CC/C(=C(/c1ccc(/C=C/C(=O)O)cc1)c1ccc2[nH]ncc2c1)c1cccc(OCCCOC)c1` [Compound 342, (E)-3-(4-((E)-1-(1H-Indazol-5-yl)-2-(3-(3-methoxypropoxy)phenyl)but-1-en-1-yl)phenyl)acrylic acid], in the experiment on MCF-7 cells, the “MCF7 Viability Assay Max Response” value is given as “++ (++ = a single % value ≧ 40%)” and the IC50 was ≤ 100 nM. In addition, on ER-α in MCF-7 cells, the Emax was ≥ 40% and the DC50 was ≤ 100 nM.
Take `CC/C(=C(/c1ccc(/C=C/C(=O)O)cc1)c1ccc2[nH]ncc2c1F)c1cccc(OC2CCN(C)CC2)c1` [Compound 343, (E)-3-(4-((E)-1-(4-Fluoro-1H-indazol-5-yl)-2-(3-((1-methylpiperidin-4-yl)oxy)phenyl)but-1-en-1-yl)phenyl)acrylic acid]: in the experiment with MCF-7 cells, the “MCF7 Viability Assay Max Response” value is reported as “++ (++ = a single % value ≧ 40%)” and the IC50 is > 100 nM. Moreover, on ER-α in MCF-7 cells, the Emax was ≥ 40% and the DC50 was > 100 nM.
For the compound `CC/C(=C(/c1ccc(/C=C/C(=O)O)cc1)c1ccc2[nH]ncc2c1F)c1cccc(OC2CCOCC2)c1` [Compound 344, (E)-3-(4-((E)-1-(4-Fluoro-1H-indazol-5-yl)-2-(3-((tetrahydro-2H-pyran-4-yl)oxy)phenyl)but-1-en-1-yl)phenyl)acrylic acid], in the experiment on MCF-7 cells, the “MCF7 Viability Assay Max Response” value was “++ (++ = a single % value ≧ 40%)” and the IC50 is > 100 nM. Moreover, on ER-α in MCF-7 cells, the Emax is ≥ 40% and the DC50 was ≤ 100 nM.

The IC50 is the concentration needed to halve the response being measured. Higher therefore signals lower potency.
